Assay results as given in patent US12391737B2, “Soluble NPY2 receptor agonists” (Boehringer Ingelheim International GmbH, priority 2020, dated 2025).

What was measured:
Solubility determination = conditions: for Sol6: pH 6; for Sol7: pH 7
Procedure, shortened: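 Solubility is derived from the ratio of reversed-phase peak areas, filtered sample over a control dissolved at 1 mg/ml in 50% acetonitrile. Peptides are agitated for 2 hours at room temperature in 0.1 M sodium diphosphate at pH 6.4 or 7.0, aiming at 10 mg/ml.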

[1] = molecular target: T1, Human Neuropeptide Y2 Receptor (Homo sapiens, UniProt P49146); assay: Radioligand binding competition assay (RLB); conditions: Table 3, 125I-PYY(1-36) competition; read-out: Ki
T1 construct: purchased CHEMICON HTS066M
T1 sequence (P49146 1-381): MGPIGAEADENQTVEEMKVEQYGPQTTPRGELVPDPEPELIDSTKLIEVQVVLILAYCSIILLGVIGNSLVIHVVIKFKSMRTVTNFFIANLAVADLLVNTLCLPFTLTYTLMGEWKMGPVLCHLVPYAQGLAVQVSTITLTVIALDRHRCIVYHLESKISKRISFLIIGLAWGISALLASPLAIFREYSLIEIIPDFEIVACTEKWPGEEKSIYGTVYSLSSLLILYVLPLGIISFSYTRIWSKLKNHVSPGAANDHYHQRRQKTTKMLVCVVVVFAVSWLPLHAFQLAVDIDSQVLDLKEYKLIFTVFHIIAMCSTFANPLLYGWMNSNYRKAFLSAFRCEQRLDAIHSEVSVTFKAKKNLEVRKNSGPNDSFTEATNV
Procedure, shortened: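 Receptor membranes, 0.5 μg/well; buffer 50 mM HEPES/5 mM MgCl2/1 mM CaCl2/0.2% ovalbumin, pH 7.4; 2 h RT, shaking. GF/C filtration, cold HEPES/500 mM NaCl wash, scintillation count. IC50 by nonlinear regression.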

Compound | Sol6 (Solubility determination) [mg/mL] | Sol7 (Solubility determination) [mg/mL] | Ki [1] [nM]
CC(C)CC(=O)N[C@@H](C)C(=O)N1CCC[C@H]1C(=O)N[C@@H](CCC(=O)O)C(=O)N[C@@H](CCCCNC(=O)CCCCCNC(=O)CC[C@H](NC(=O)CCCCCCCCCCCCCCCCC(=O)O)C(=O)O)C(=O)N1CCC[C@H]1C(=O)N[C@@H](CCC(=O)O)C(=O)N[C@@H](CCC(=O)O)C(=O)N[C@@H](CC(=O)O)C(=O)N[C@@H](C)C(=O)N[C@H](C(=O)N1CCC[C@H]1C(=O)N[C@@H](CCC(=O)O)C(=O)N[C@@H](CCC(=O)O)C(=O)N[C@@H](CC(C)C)C(=O)N[C@@H](CCC(N)=O)C(=O)N[C@@H](CCCNC(=N)N)C(=O)N[C@@H](Cc1ccc(O)cc1)C(=O)N[C@@H](Cc1ccc(O)cc1)C(=O)N[C@H](C(=O)N[C@@H](CC(C)C)C(=O)N[C@@H](CC(C)C)C(=O)N[C@@H](CCCNC(=N)N)C(=O)N[C@@H](Cc1c[nH]cn1)C(=O)N[C@@H](Cc1ccc(O)cc1)C(=O)N[C@@H](Cc1ccc(O)cc1)C(=O)N[C@@H](CC(N)=O)C(=O)N[C@@H](Cc1c[nH]c2ccccc12)C(=O)N[C@@H](CC(C)C)C(=O)N[C@H](C(=O)N[C@@H](CCCNC(=N)N)C(=O)N[C@@H](CCC(N)=O)C(=O)N[C@@H](CCCNC(=N)N)C(=O)N[C@@H](Cc1ccc(O)cc1)C(N)=O)[C@@H](C)O)C(C)C)[C@@H](C)O [Compound 49, N{alpha-4}-(3-methylbutanoyl)-N{epsilon-7}-(6-[(4S)-4-carboxy-4-(17-carboxyheptadecanamido)butanamido]hexanoyl)-[4A,7K,9E,13T,18Q,22V,23L,28Y,30W,31L]-hPYY(4-36)] | >10.0 | >10.0 | 11.6
CC(C)CC(=O)N[C@@H](C)C(=O)N1CCC[C@H]1C(=O)N[C@@H](CCC(=O)O)C(=O)N[C@@H](CCCCNC(=O)CCCCCNC(=O)CC[C@H](NC(=O)CCCCCCCCCCCCCCCCC(=O)O)C(=O)O)C(=O)N1CCC[C@H]1C(=O)N[C@@H](CCC(=O)O)C(=O)N[C@@H](CCC(=O)O)C(=O)N[C@@H](CC(=O)O)C(=O)N[C@@H](C)C(=O)N[C@H](C(=O)N1CCC[C@H]1C(=O)N[C@@H](CCC(=O)O)C(=O)N[C@@H](CCC(=O)O)C(=O)N[C@@H](CC(C)C)C(=O)N[C@@H](CCC(N)=O)C(=O)N[C@@H](CCCNC(=N)N)C(=O)N[C@@H](Cc1ccc(O)cc1)C(=O)N[C@@H](Cc1ccc(O)cc1)C(=O)N[C@H](C(=O)N[C@@H](CO)C(=O)N[C@@H](CC(C)C)C(=O)N[C@@H](CCCNC(=N)N)C(=O)N[C@@H](Cc1c[nH]cn1)C(=O)N[C@@H](Cc1ccc(O)cc1)C(=O)N[C@@H](Cc1ccc(O)cc1)C(=O)N[C@@H](CC(N)=O)C(=O)N[C@@H](Cc1c[nH]c2ccccc12)C(=O)N[C@@H](CC(C)C)C(=O)N[C@@H](CCC(N)=O)C(=O)N[C@@H](CCCNC(=N)N)C(=O)N[C@@H](CCC(N)=O)C(=O)N[C@@H](CCCNC(=N)N)C(=O)N[C@@H](Cc1ccc(O)cc1)C(N)=O)C(C)C)[C@@H](C)O [Compound 188, N{alpha-4}-(3-methylbutanoyl)-N{epsilon-7}-(6-[(4S)-4-carboxy-4-(17-carboxyheptadecanamido)butanamido]hexanoyl)-[4A,7K,9E,13T,18Q,22V,28Y,30W,31L,32Q]-hPYY(4-36)] | 9.5 | 9.8 | 5.46
CC(C)CC(=O)N[C@@H](C)C(=O)N1CCC[C@H]1C(=O)N[C@@H](C)C(=O)N[C@@H](CCCCNC(=O)CCCCCNC(=O)CC[C@H](NC(=O)CCCCCCCCCCCCCCCCC(=O)O)C(=O)O)C(=O)N1CCC[C@H]1C(=O)N[C@@H](CCC(=O)O)C(=O)N[C@@H](CCC(=O)O)C(=O)N[C@@H](CC(=O)O)C(=O)N[C@@H](C)C(=O)N[C@@H](CCC(=O)O)C(=O)N1CCC[C@H]1C(=O)N[C@@H](CCC(=O)O)C(=O)N[C@@H](CCC(=O)O)C(=O)N[C@@H](CC(C)C)C(=O)N[C@@H](CCC(N)=O)C(=O)N[C@@H](CCCNC(=N)N)C(=O)N[C@@H](Cc1ccc(O)cc1)C(=O)N[C@@H](Cc1ccc(O)cc1)C(=O)N[C@H](C(=O)N[C@@H](CO)C(=O)N[C@@H](CC(C)C)C(=O)N[C@@H](CCCNC(=N)N)C(=O)N[C@@H](Cc1c[nH]cn1)C(=O)N[C@@H](Cc1ccc(O)cc1)C(=O)N[C@@H](Cc1ccc(O)cc1)C(=O)N[C@@H](CC(N)=O)C(=O)N[C@@H](Cc1c[nH]c2ccccc12)C(=O)N[C@@H](CC(C)C)C(=O)N[C@H](C(=O)N[C@@H](CCCNC(=N)N)C(=O)N[C@@H](CCC(N)=O)C(=O)N[C@@H](CCCNC(=N)N)C(=O)N[C@@H](Cc1ccc(O)cc1)C(N)=O)[C@@H](C)O)C(C)C [Compound 133, N{alpha-4}-(3-methylbutanoyl)-N{epsilon-7}-(6-[(4S)-4-carboxy-4-(17-carboxyheptadecanamido)butanamido]hexanoyl)-[4A,6A,7K,9E,13E,18Q,22V,28Y,30W,31L]-hPYY(4-36)] | 9.6 | 9.7 | 4.68

Continued, values first:

Sol6 (Solubility determination) [mg/mL] | Sol7 (Solubility determination) [mg/mL] | Ki [1] [nM] | Compound
10.0 | 8.5 | 14 | CC(C)CC(=O)N[C@@H](C)C(=O)N1CCC[C@H]1C(=O)N[C@@H](CCC(=O)O)C(=O)N[C@@H](CCCCNC(=O)CCCCCNC(=O)CC[C@H](NC(=O)CCCCCCCCCCCCCCCCC(=O)O)C(=O)O)C(=O)N1CCC[C@H]1C(=O)N[C@@H](CCC(=O)O)C(=O)N[C@@H](CCC(=O)O)C(=O)N[C@@H](CC(=O)O)C(=O)N[C@@H](CC(C)C)C(=O)N[C@H](C(=O)N1CCC[C@H]1C(=O)N[C@@H](CCC(=O)O)C(=O)N[C@@H](CCC(=O)O)C(=O)N[C@@H](CC(C)C)C(=O)N[C@@H](CCC(N)=O)C(=O)N[C@@H](CCCNC(=N)N)C(=O)N[C@@H](Cc1ccc(O)cc1)C(=O)N[C@@H](Cc1ccc(O)cc1)C(=O)N[C@H](C(=O)N[C@@H](CO)C(=O)N[C@@H](CC(C)C)C(=O)N[C@@H](CCCNC(=N)N)C(=O)N[C@@H](Cc1c[nH]cn1)C(=O)N[C@@H](Cc1ccc(O)cc1)C(=O)N[C@@H](Cc1ccc(O)cc1)C(=O)N[C@@H](CC(N)=O)C(=O)N[C@@H](Cc1c[nH]c2ccccc12)C(=O)N[C@@H](CC(C)C)C(=O)N[C@H](C(=O)N[C@@H](CCCNC(=N)N)C(=O)N[C@@H](CCC(N)=O)C(=O)N[C@@H](CCCNC(=N)N)C(=O)N[C@@H](Cc1ccc(O)cc1)C(N)=O)[C@@H](C)O)C(C)C)[C@@H](C)O [Compound 109, N{alpha-4}-(3-methylbutanoyl)-N{epsilon-7}-(6-[(4S)-4-carboxy-4-(17-carboxyheptadecanamido)butanamido]hexanoyl)-[4A,7K,9E,12L,13T,18Q,22V,28Y,30W,31L]-hPYY(4-36)]
>10.0 | >10.0 | 4.23 | CC[C@H](C)[C@H](NC(=O)[C@H](CCC(=O)O)NC(=O)[C@H](CCC(=O)O)NC(=O)[C@@H]1CCCN1C(=O)[C@@H](NC(=O)[C@H](C)NC(=O)[C@H](CC(=O)O)NC(=O)[C@H](CCC(=O)O)NC(=O)[C@H](CCC(=O)O)NC(=O)[C@@H]1CCCN1C(=O)[C@H](CCCCNC(=O)CCCCCNC(=O)CC[C@H](NC(=O)CCCCCCCCCCCCCCCCC(=O)O)C(=O)O)NC(=O)[C@H](CCC(=O)O)NC(=O)[C@@H]1CCCN1C(=O)[C@H](C)NC(=O)CC(C)C)[C@@H](C)O)C(=O)N[C@@H](CCC(N)=O)C(=O)N[C@@H](CCCNC(=N)N)C(=O)N[C@@H](Cc1ccc(O)cc1)C(=O)N[C@@H](Cc1ccc(O)cc1)C(=O)N[C@@H](CC(C)C)C(=O)N[C@@H](CO)C(=O)N[C@@H](CC(C)C)C(=O)N[C@@H](CCCNC(=N)N)C(=O)N[C@@H](Cc1c[nH]cn1)C(=O)N[C@@H](Cc1ccc(O)cc1)C(=O)N[C@@H](Cc1ccc(O)cc1)C(=O)N[C@@H](CC(N)=O)C(=O)N[C@@H](Cc1c[nH]c2ccccc12)C(=O)N[C@@H](CC(C)C)C(=O)N[C@H](C(=O)N[C@@H](CCCNC(=N)N)C(=O)N[C@@H](CCC(N)=O)C(=O)N[C@@H](CCCNC(=N)N)C(=O)N[C@@H](Cc1ccc(O)cc1)C(N)=O)[C@@H](C)O [Compound 97, N{alpha-4}-(3-methylbutanoyl)-N{epsilon-7}-(6-[(4S)-4-carboxy-4-(17-carboxyheptadecanamido)butanamido]hexanoyl)-[4A,7K,9E,13T,17I,18Q,22L,28Y,30W,31L]-hPYY(4-36)]
